Entries after “also recorded” stand apart in the source; their conditions may differ. Structures can show the parent of a compound that is named as a salt.
Tests used:
mice [1] = assay: Formalin test (ETSP, area under the curve); type: in vivo; conditions: ip
D2S = D2S (Homo sapiens, UniProt P14416); assay: Radioligand binding
Experimental: (§1) Radioligand binding. Radioligand binding assays were performed at Eurofins CEREP (France). The results are expressed as a percent of control specific binding (measured specific binding*100/control specific binding) and as a percent inhibition of control specific binding (100-(measured specific binding*100)/control specific binding) obtained in the presence of the test compounds. The IC50 values (concentration causing a half-maximal inhibition of control specific binding) and Hill coefficients (nH) were determined by non-linear regression analysis of the competition curves generated with mean replicate values using Hill equation curve fitting (Y = D + [A-D]/[1 + (C/C50)^nH], where Y = specific binding, A = left asymptote of the curve, D = right asymptote of the curve, C = compound concentration, C50 = IC50, and nH = slope factor). This analysis was performed using software developed at Cerep (Hill software) and validated by comparison with data generated by the commercial software SigmaPlot® 4.0 for Windows® (© 1997 by SPSS Inc.). The inhibition constants (Ki) were calculated using the Cheng Prusoff equation (Ki = IC50/[1 + L/KD], where L = concentration of radioligand in the assay, and KD = affinity of the radioligand for the receptor). A scatchard plot is used to determine the Kd.

M5 = target: T1, M5 (Homo sapiens, UniProt P08912); assay: Radioligand binding
T1 sequence (P08912 1-532): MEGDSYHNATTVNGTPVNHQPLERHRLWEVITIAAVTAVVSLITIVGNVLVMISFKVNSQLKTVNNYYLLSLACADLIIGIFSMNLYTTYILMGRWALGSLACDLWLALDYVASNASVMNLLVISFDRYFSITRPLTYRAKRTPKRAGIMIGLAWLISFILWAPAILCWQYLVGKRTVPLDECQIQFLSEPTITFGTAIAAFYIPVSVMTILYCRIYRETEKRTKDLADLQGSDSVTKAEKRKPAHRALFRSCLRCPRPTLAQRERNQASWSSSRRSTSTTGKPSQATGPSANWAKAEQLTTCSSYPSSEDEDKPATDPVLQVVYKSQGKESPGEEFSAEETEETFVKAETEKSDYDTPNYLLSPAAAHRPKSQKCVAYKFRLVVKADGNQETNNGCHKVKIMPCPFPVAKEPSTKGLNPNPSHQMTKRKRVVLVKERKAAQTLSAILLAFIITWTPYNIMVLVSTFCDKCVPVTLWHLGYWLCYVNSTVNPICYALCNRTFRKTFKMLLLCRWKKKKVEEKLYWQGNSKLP
Experimental: as §1

rats [2] = assay: SCMET (subcutaneous Metrazol) test; type: in vivo; conditions: for SCMET ED50: rats
mice [3] = assay: Subcutaneous pentylenetetrazole seizure test (ScPTZ, SCMET); type: in vivo; conditions: ip, […]
Experimental: The assays were carried out within the Epilepsy Therapy Screening Program (ETSP, previously known as the Anticonvulsant Screening Program, ASP), Epilepsy Branch, National Institute of Neurological and Communicative Disorders and Stroke, National Institutes of Health in Rockville, MD, USA [23].

rats [4] = assay: Maximal electroshock seizure (MES) test; type: in vivo
[5] = tested on: organotypic hippocampal slice cultures; assay: Neuroprotection primary screen, excitotoxin kainic acid; type: cell-based; conditions: kainic acid 20 µM, 10 and 100 µM compound
Experimental: Compound 2 : ADD t{umber, b890s0 Batch: lB- Date Compteted. Ect\,t""201 0 […]
Excilotoxin: llGinic ncia Insult Duration: l+ Hours Solvent: […]
Ai lxn zopr.,r aZ lxa zopr,r Ae lre zoprta
Bz lr<n zopn er ]ra zopr',t l:+aot a r ooprt/|*aa9o8o l oopM lgaeota t oot,tr,t*gB9o8o t oopM […]
The "Primary screen Experiment" is a qualitative assessment of the ability of a compound to prevent excitotoxic cell dearh. organotypic hippocampal slice clltures are treated with N-methyl-D-aipartate lNuoa; o; kainic acid (KA) to induce neuronal cell death. Propidium iodide (Pl), a membrane-impermeant compound, is included in all welts of the culture plate.
Dying cells have compromised cell membranes, thus Pl may diffuse into the cell, intercalate with DNA and ftuoresce. Thus, the intensity of the Pl fluorescence is proportional to the amount of cell death in the individual slices. Hippocampal slice cultures are treated with the excitotoxin alone, or where indicated above, with the excitotoxin and either one eltu/o investigational compounds at the concentrations indicated. lf neuroprotection occurs as a consequence of the added […]
been treated with the excitotoxin alone.
(1 picture or pasted object on this page, not shown here)

α2 (non-selective) = assay: Radioligand binding; design: species or system rat
Experimental: as §1

[6] = tested on: Ca2+ channel (L, verapamil site) (phenylalkylamine); assay: Radioligand binding; design: species or system rat
Experimental: as §1

Sigma (non-selective) = assay: Radioligand binding; design: species or system rat
Experimental: as §1

mice [7] = assay: iv pentylenetetrazole (PTZ) seizure threshold test; conditions: compound ip
Experimental: They were also evaluated in the iv pentylenetetrazole (PTZ) test.
Data are expressed as the mean PTZ dose ± SEM for n = 10 that induced clonus or twitch in mice exposed to a particular dose of the test compound

mice [8] = assay: Corneal kindling; type: in vivo; conditions: ip
[9] = 0.1 μM, read-out: % of control specific binding
[10] = 1 μM, read-out: % of control specific binding
[11] = 10 μM, read-out: % of control specific binding
[12] = 100 μM, read-out: % of control specific binding

D2S, sequence (P14416 1-414 isoform P14416-2): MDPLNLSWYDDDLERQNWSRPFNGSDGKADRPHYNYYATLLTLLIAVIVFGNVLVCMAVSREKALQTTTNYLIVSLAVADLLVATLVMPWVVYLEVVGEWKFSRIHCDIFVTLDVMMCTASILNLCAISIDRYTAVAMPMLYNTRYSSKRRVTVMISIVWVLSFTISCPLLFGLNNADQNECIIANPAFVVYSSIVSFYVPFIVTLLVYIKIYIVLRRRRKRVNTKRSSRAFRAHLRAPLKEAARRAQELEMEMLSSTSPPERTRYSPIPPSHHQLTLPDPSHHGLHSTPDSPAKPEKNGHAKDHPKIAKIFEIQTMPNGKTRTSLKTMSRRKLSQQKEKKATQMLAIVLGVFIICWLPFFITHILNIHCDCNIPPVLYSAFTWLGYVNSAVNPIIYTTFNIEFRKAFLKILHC

## CCC(CO)NCCOc1c(C)cccc1Cl (stereo not drawn) [Compound 4, R,S-2-((2-(2-chloro-6-methylphenoxy)ethyl)amino)butan-1-ol]
Mice [1]; 21 mg/kg
  Area under the curve (I phase): 124.8 ± 32.7
  Area under the curve (II phase): 569.2 ± 405.0
  Area under the curve, % of control (I phase): 64.0%
  Area under the curve, % of control (II phase): 72.7%
Mice [1]; 21 mg/kg, listed as 348014
  Area under the curve (I phase): 124.8
  Area under the curve (II phase): 569.2
D2S; 100 μM
  % of control specific binding: 33.3%
M5; 100 μM
  % of control specific binding: 21.5%
Rats [2]; ip, […]
  SCMET ED50: > 50 mg/kg
Rats [2]; po
  SCMET ED50: > 240 mg/kg
Mice [3]; mice
  SCMET ED50: > 64 mg/kg
Rats [4]; ip
  MES TPE: 0.25 h
Rats [4]; ip, […]
  MES ED50: 7.3 (5.39–9.89) mg/kg
Rats [4]; po
  MES ED50: > 60 mg/kg
  MES PI: > 3.55
Rats [4]; po, […]
  MES ED50: 67.69 (43.01–93.82) mg/kg
[5]
  Test Result (neuroprotection): No Neuroprotection
α2 (non-selective); 100 μM
  % of control specific binding: 27.7%
[6]; 100 μM
  % of control specific binding: 38.5%
Sigma (non-selective); 100 μM
  % of control specific binding: -2.7%
Mice [7]
  influence on seizure threshold: lowered the seizure threshold; also recorded: showed activity in lowering the seizure threshold
Mice [8]
  Corneal kindling TPE: 0.25 h
Mice [8]; […]
  Corneal kindling ED50: 19.51 (11.86–28.41) mg/kg

## CCC(CO)NCCOc1c(C)cccc1Cl (stereo not drawn) [KM-408, R,S-2-((2-(2-chloro-6-methylphenoxy)ethyl)amino)butan-1-ol hydrochloride]
Mice [1]; 13.25 mg/kg
  Area under the curve (I phase): 113.7 ± 65.6
  Area under the curve (II phase): 489.7 ± 211.3
D2S
  IC50: 100 µM
  Ki: 34 µM
D2S; [9]
  remaining activity at 0.1 µM: 96.2%
D2S; [10]
  remaining activity at 1 µM: 96.5%
D2S; 3 μM, read-out: % of control specific binding
  remaining activity at 3 µM: 92.8%
D2S; [11]
  remaining activity at 10 µM: 86%
D2S; [12]
  remaining activity at 100 µM: 49.1%
M5
  IC50: 35 µM
  Ki: 18 µM
M5; 0.01 μM, read-out: % of control specific binding
  remaining activity at 0.01 µM: 104%
M5; [9]
  remaining activity at 0.1 µM: 92.6%
M5; [10]
  remaining activity at 1 µM: 96.8%
M5; [11]
  remaining activity at 10 µM: 76.6%
M5; [12]
  remaining activity at 100 µM: 26%
Rats [2]; Rattus norvegicus, ip, […], read-out: SCMET ED50
  ED50: > 54 mg/kg
Mice [3]; Mus musculus, read-out: SCMET ED50
  ED50: > 100 mg/kg
Rats [4]; Rattus norvegicus, ip, 0.25 h
  ED50: 5.69 mg/kg
Rats [4]; ip
  MES PI: 9.55
  MES TPE: 0.25 h
[5]; listed as 367061
  Test Result (neuroprotection): No neurop rotection observed
α2 (non-selective)
  IC50: 24 µM
  Ki: 10 µM
α2 (non-selective); 0.01 μM
  % of control specific binding: 101.3%
α2 (non-selective); 0.1 μM
  % of control specific binding: 111.6%
α2 (non-selective); 1 μM
  % of control specific binding: 101.2%
α2 (non-selective); 10 μM
  % of control specific binding: 73.4%
α2 (non-selective); 100 μM
  % of control specific binding: 23.5%
[6]
  IC50: 43 µM
  Ki: 22 µM
[6]; 0.1 μM
  % of control specific binding: 101.9%
[6]; 1 μM
  % of control specific binding: 104.4%
[6]; 3 μM
  % of control specific binding: 93.6%
[6]; 10 μM
  % of control specific binding: 80.9%
[6]; 100 μM
  % of control specific binding: 34.8%
Sigma (non-selective)
  IC50: 0.089 µM
  Ki: 0.072 µM
Sigma (non-selective); 0.001 μM
  % of control specific binding: 104.0%
Sigma (non-selective); 0.01 μM
  % of control specific binding: 97.1%
Sigma (non-selective); 0.1 μM
  % of control specific binding: 50.0%
Sigma (non-selective); 1 μM
  % of control specific binding: 13.1%
Sigma (non-selective); 10 μM
  % of control specific binding: 1.4%
Mice [7]
  influence on seizure threshold: the effect was not observed
Mice [7]; listed as KM408
  influence on seizure threshold: effect was not shown
Mice [8]; at 30 mg/kg, […]
  Corneal kindling avg. seizure score by Racine (0–5): 2.5
